Reference: PMC6946680, “Modulation of brain cation-Cl^− cotransport via the SPAK kinase inhibitor ZT-1a” (Nature Communications, 2020)
Several values for one entry are separate records, joined by “and”; a condition that tells them apart may be missing. Identical values can stand only once.

What was measured:
[1] = test system: KCC3 Thr991Ala/Thr1048Ala; assay: 86Rb+ uptake assay for KCC3 double mutant in HEK-293 cells; format: cell-based, human; settings: for 86Rb+ uptake: Fig 3a, T991A/T1048A + 1a (10 µM), replicates
Experimental: ^86Rb^+ flux assays have been utilized extensively as a reliable measurement of cation chloride cotransporter activity[51]–[54].
Thirty-six hours post transfection, cells were exposed for 30 min to either control isotonic conditions or hypotonic low [Cl^−] conditions (to activate the SPAK/OSR1 pathway), and then treated for an additional 30 min in the same conditions with the indicated ZT-1a concentrations in the presence of 1 mM ouabain and 0.1 mM bumetanide. Ten-minute ^86Rb^+ uptake values were quantified by scintillation counting, normalized per mg protein for each condition, and plotted for both isotonic and hypotonic conditions. ***p < 0.001; **p < 0.01; *p < 0.05; ns—nonsignificant [by one-way ANOVA with post hoc testing (n = 6, error bars represent the mean ± SEM)]. b ^86Rb^+ uptake assays in the presence of ZT-1a measure transport activity of NKCC1. […] Thirty-six hours post transfection, cells were exposed for 30 min to either control isotonic conditions or hypotonic low [Cl^−] conditions (to activate the SPAK/OSR1 pathway), and then treated in the same conditions for an additional 30 min with 10 µM ZT-1a or 0.1 mM bumetanide (Bum) in the presence of 1 mM ouabain (Na^+/K^+-ATPase inhibitor). ^86Rb^+ uptake was allowed to proceed for 10 min and was then quantified by scintillation counting. ^86Rb^+ uptake CPMs were normalized per mg protein and plotted for both isotonic and hypotonic conditions. […] Ten-minute ^86Rb^+ uptake values were quantified by scintillation counting, normalized per mg protein for each condition, and plotted for both isotonic and hypotonic conditions. ***p < 0.001; **p < 0.01; *p < 0.05; ns—nonsignificant [by one-way ANOVA with post hoc testing (n = 6, error bars represent the mean ± SEM)].
This stimulating medium was then removed and replaced with isotonic medium containing inhibitors plus 2 µCi/ml ^86Rb^+. […] Washed cells were lysed in 300 µl of ice-cold lysis buffer and ^86Rb^+ uptake was quantitated by liquid scintillation counting (PerkinElmer).

[2] = test system: ERK5; assay: Kinase profiling panel; format: biochemical
Experimental: (§1) Supplementary Table 2. ZT-1a kinase profiling data6.
(§2) ZT-1a was tested at 10 and 1 µM against a panel of 140 recombinant kinases in an enzymatic
(§3) activity-based assay performed by the International Centre for Kinase Profiling in the MRC
(§4) Protein Phosphorylation and Ubiquitylation Unit. Values represent % residual kinase activity

[3] = test system: CSK; assay: Kinase profiling panel; format: biochemical
Experimental: as §1, §2, §3, §4

[4] = test system: ASK1; assay: Kinase profiling panel; format: biochemical
Experimental: as §1, §2, §3, §4

[5] = test system: PAK4; assay: Kinase profiling panel; format: biochemical
Experimental: as §1, §2, §3, §4

[6] = test system: MST3; assay: Kinase profiling panel; format: biochemical
Experimental: as §1, §2, §3, §4

[7] = test system: PLK1; assay: Kinase profiling panel; format: biochemical
Experimental: as §1, §2, §3, §4

[8] = test system: HIPK2; assay: Kinase profiling panel; format: biochemical
Experimental: as §1, §2, §3, §4

[9] = test system: BRK; assay: Kinase profiling panel; format: biochemical
Experimental: as §1, §2, §3, §4

[10] = test system: PHK; assay: Kinase profiling panel; format: biochemical
Experimental: as §1, §2, §3, §4

[11] = test system: MLK3; assay: Kinase profiling panel; format: biochemical
Experimental: as §1, §2, §3, §4

[12] = test system: PDK1; assay: Kinase profiling panel; format: biochemical
Experimental: as §1, §2, §3, §4

[13] = test system: TTK; assay: Kinase profiling panel; format: biochemical
Experimental: as §1, §2, §3, §4

SMILES: Cc1cc(C(C#N)c2ccc(Cl)cc2)c(Cl)cc1NC(=O)c1cc(Cl)ccc1O (stereo not drawn) [ZT-1a, 5-chloro-N-(5-chloro-4-((4-chlorophenyl)(cyano)methyl)-2-methylphenyl)-2-hydroxybenzamide]
- activity of KCC3 double mutant Thr991Ala/Thr1048Ala ([1]; 86Rb+ flux, 10 µM ZT-1a): failed to increase activity
- 86Rb+ uptake ([1]; Hypotonic low Cl-): 20886.3 and 22005.7 and 21031.7 and 19121.7 and 18316.2 and 19001.7
- 86Rb+ uptake ([1]; Isotonic control): 27112.3 and 26091.1 and 31837.7 and 30881.4 and 28673.6 and 29768.2
- % residual kinase activity ([2]; 1 µM): 120±9%
- % residual kinase activity ([2]; 10 µM): 114±5%
- % residual kinase activity ([3]; 1 µM): 96±8%
- % residual kinase activity ([3]; 10 µM): 106±29%
- % residual kinase activity ([4]; 1 µM): 101±3%
- % residual kinase activity ([4]; 10 µM): 100±11%
- % residual kinase activity ([5]; 1 µM): 81±16%
- % residual kinase activity ([5]; 10 µM): 51±3%
- % residual kinase activity ([6]; 1 µM): 109±8%
- % residual kinase activity ([6]; 10 µM): 113±15%
- % residual kinase activity ([7]; 1 µM): 72±1%
- % residual kinase activity ([7]; 10 µM): 93±21%
- % residual kinase activity ([8]; 1 µM): 90±14%
- % residual kinase activity ([8]; 10 µM): 91±4%
- % residual kinase activity ([9]; 1 µM): 116±12%
- % residual kinase activity ([9]; 10 µM): 103±2%
- % residual kinase activity ([10]; 1 µM): 97±3%
- % residual kinase activity ([10]; 10 µM): 107±2%
- % residual kinase activity ([11]; 1 µM): 119±11%
- % residual kinase activity ([11]; 10 µM): 114±3%
- % residual kinase activity ([12]; 1 µM): 92±6%
- % residual kinase activity ([12]; 10 µM): 69±17%
- % residual kinase activity ([13]; 1 µM): 104±2%
- % residual kinase activity ([13]; 10 µM): 91±5%
